Where “and” joins values, the source holds several entries; their conditions need not be identical. Identical values can stand only once.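 Protocol summary: plate cells (96-well), add compound at 5 concentrations, incubate 48 h, interpolate endpoints linearly. GI50 is the concentration that inhibits growth by half. TGI: total growth inhibition.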

Test systems include IGROV1 ovarian; NCI-H23 lung; SF-268 CNS; SK-MEL-2 melanoma; SK-OV-3 ovarian; SK-MEL-28 melanoma; SNB-75 CNS; CAKI-1 renal; MCF7 breast; HS 578T breast.
Test in all cases: inhibition of tumour cell growth, NCI panel, 48 h

In the case of `N#CNC(N)=NCc1ccccc1`, the TGI in the experiment with IGROV1 ovarian, in the experiment with NCI-H23 lung, in the experiment with SF-268 CNS, in the experiment on SK-MEL-2 melanoma, with SK-OV-3 ovarian and with SK-MEL-28 melanoma was more than 100 µM in each case. In the experiment with SNB-75 CNS, this compound gave a TGI of more than 100 µM.

Consider `N#Cc1c(-c2ccc([N+](=O)[O-])cc2)cc(-c2ccc(Nc3ccnc4cc(Cl)ccc34)cc2)[nH]c1=O`, for which the TGI in the experiment on IGROV1 ovarian, in the experiment with NCI-H23 lung, in the experiment with CAKI-1 renal, with SF-268 CNS, with MCF7 breast and in the experiment with SK-MEL-2 melanoma was more than 100 µM in each case. Further, the TGI in the experiment with SK-OV-3 ovarian, in the experiment on SK-MEL-28 melanoma and in the experiment with SNB-75 CNS was more than 100 µM throughout.

As for `Cc1cc([N+](=O)[O-])c(C)c2c1[nH]c1ccc(Cl)cc12`, the TGI in the experiment with NCI-H23 lung, in the experiment with CAKI-1 renal, in the experiment on SF-268 CNS, with SK-MEL-2 melanoma, in the experiment on SK-MEL-28 melanoma and in the experiment on SNB-75 CNS was more than 100 µM throughout.

Regarding `CN(C)CCNC(=O)c1cccc2c1Nc1ccccc1S2`, the TGI is 24.1 µM with IGROV1 ovarian; 28.5 µM with NCI-H23 lung; 31.7 µM with SF-268 CNS; 27 µM in the experiment with MCF7 breast; 30.3 µM in the experiment with SK-MEL-2 melanoma; 30.5 µM in the experiment on SK-OV-3 ovarian. Besides, the results for the TGI in the experiment on SK-MEL-28 melanoma and in the experiment on SNB-75 CNS were 27.7 µM and 21.3 µM, respectively.

Take `CN(C)C(=O)C(F)(F)C(c1ccc(F)cc1)C1C(=O)N(C)C(=O)N(C)C1=O` (configuration not stated): the TGI in the experiment on NCI-H23 lung, in the experiment on CAKI-1 renal, with SF-268 CNS, with MCF7 breast, in the experiment with SK-MEL-2 melanoma and in the experiment on SK-OV-3 ovarian was more than 100 µM throughout. The TGI with SK-MEL-28 melanoma and with SNB-75 CNS was more than 100 µM each time.

Regarding `Cc1c2ccnc(C(N)=O)c2c(C)c2c1[nH]c1ccccc12`, the GI50 with IGROV1 ovarian was 7.49 µM; in the experiment with NCI-H23 lung, 3.41 µM; with CAKI-1 renal, 4.82 µM; in the experiment on SF-268 CNS, 6.19 µM; in the experiment with SK-MEL-2 melanoma it was 9.86 µM; in the experiment on SK-OV-3 ovarian it was 14.1 µM. In addition, the GI50 in the experiment with SK-MEL-28 melanoma is 5.31 µM; in the experiment with SNB-75 CNS, 13.8 µM. For the same compound, the TGI in the experiment with IGROV1 ovarian is 50 µM and 27.4 µM; with NCI-H23 lung it was 24.4 µM and 18.9 µM; in the experiment on CAKI-1 renal it was 9.58 µM and 26.4 µM; in the experiment on SF-268 CNS, 44.6 µM and 27.8 µM; in the experiment with MCF7 breast, 32 µM; with SK-MEL-2 melanoma, 37.5 µM and 44.1 µM. The TGI was 23.9 µM and 34.3 µM with SK-OV-3 ovarian; 19.4 µM and 20.1 µM in the experiment with SK-MEL-28 melanoma; 24.6 µM and 39.9 µM with SNB-75 CNS.

For `CN(C)c1nc(Oc2nc(N(C)C)nc(N(C)C)n2)nc(N(C)C)n1`, the TGI with IGROV1 ovarian, with NCI-H23 lung, with CAKI-1 renal, in the experiment with SF-268 CNS, in the experiment with SK-MEL-2 melanoma and with SK-OV-3 ovarian was more than 100 µM throughout. For the same compound, the TGI with SK-MEL-28 melanoma and in the experiment with SNB-75 CNS was more than 100 µM each time.

As to `COc1ccc(C2Oc3ccc(Cl)cc3C=C2[N+](=O)[O-])cc1` (configuration not stated), the TGI in the experiment with IGROV1 ovarian, with NCI-H23 lung, in the experiment on CAKI-1 renal, in the experiment with SF-268 CNS, in the experiment with HS 578T breast and with MCF7 breast was more than 100 µM in each case. For the same compound, the TGI in the experiment with SK-OV-3 ovarian and in the experiment on SK-MEL-28 melanoma was more than 100 µM in each case.

Regarding `CSCC[C@@H](NC(=O)[C@H](CC(C)C)NC(=O)C(Cc1cnc[nH]1)NC(=O)CNC(=O)[C@@H](NC(=O)[C@H](C)NC(=O)[C@H](Cc1c[nH]c2ccccc12)NC(=O)[C@H](CCC(N)=O)NC(=O)[C@@H](N)CC(N)=O)C(C)C)C(N)=O` (some centres not stated), the TGI in the experiment on IGROV1 ovarian, in the experiment with NCI-H23 lung, in the experiment with SF-268 CNS, with MCF7 breast, in the experiment on SK-MEL-2 melanoma and in the experiment with SK-OV-3 ovarian was more than 100 µM throughout. The TGI with SK-MEL-28 melanoma and with SNB-75 CNS was more than 100 µM each time.

For `CCOC(=O)C1C(c2ccc(Cl)cc2Cl)NC(c2ccc(C)cc2)C(C(=O)OC)S1(=O)=O` (configuration not stated), the TGI in the experiment with IGROV1 ovarian, in the experiment with NCI-H23 lung, in the experiment on CAKI-1 renal, in the experiment with SF-268 CNS, in the experiment on SK-MEL-2 melanoma and with SK-OV-3 ovarian was more than 100 µM in each case. In addition, the TGI in the experiment with SK-MEL-28 melanoma and in the experiment with SNB-75 CNS was more than 100 µM throughout.

For the compound `COc1cc2nc(-c3ccc(Cl)cc3)cc(OCCCN3CCOCC3)c2cc1OC`, the figures for the GI50 in the experiment on IGROV1 ovarian, with MCF7 breast and in the experiment on SK-OV-3 ovarian were 0.99 µM, 2.49 µM and 3 µM, respectively. For the same compound, the TGI in the experiment with IGROV1 ovarian, with MCF7 breast and in the experiment on SK-OV-3 ovarian was more than 100 µM in each case.

Regarding `c1c[nH]c(-c2cccc3nsnc23)c1`, the TGI with IGROV1 ovarian, in the experiment with NCI-H23 lung, in the experiment with CAKI-1 renal, in the experiment on SF-268 CNS, with MCF7 breast and in the experiment with SK-MEL-2 melanoma was more than 100 µM in each case. Further, the TGI in the experiment on SK-OV-3 ovarian, in the experiment with SK-MEL-28 melanoma and with SNB-75 CNS was more than 100 µM each time.

`COc1cc2ccc3c4cc(OC)c(OC)cc4c[n+](C)c3c2cc1O`: the TGI is more than 100 µM with IGROV1 ovarian; more than 100 µM in the experiment on NCI-H23 lung; more than 100 µM in the experiment with CAKI-1 renal; 7.23 µM with SF-268 CNS; more than 100 µM with SK-MEL-2 melanoma; more than 100 µM with SK-OV-3 ovarian. The TGI in the experiment with SK-MEL-28 melanoma and in the experiment on SNB-75 CNS was more than 100 µM each time.

For the compound `O=C(COc1ccc(OCC(=O)N/N=C/c2ccc(-c3ccc(Cl)cc3Cl)o2)c(Cl)c1)N/N=C/c1ccc(-c2ccc(Cl)cc2Cl)o1`, the TGI in the experiment on IGROV1 ovarian, with NCI-H23 lung, in the experiment with CAKI-1 renal, with SF-268 CNS, with HS 578T breast and with MCF7 breast was more than 100 µM each time. The TGI in the experiment with SK-MEL-2 melanoma and in the experiment on SK-MEL-28 melanoma was more than 100 µM each time.

For the compound `CN(C)CCn1c(=O)c2ccc(NCCCN(C)CCCNc3ccc4c(=O)n(CCN(C)C)c(=O)n5c6ccc(O)cc6c(=O)c3c45)c3c(=O)c4cc(O)ccc4n(c1=O)c23`, the TGI with IGROV1 ovarian stood at 0.392 µM; in the experiment with NCI-H23 lung it was 0.226 µM; in the experiment on CAKI-1 renal, 2.23 µM; with SF-268 CNS, 1.04 µM; in the experiment with MCF7 breast, 0.71 µM; in the experiment with SK-MEL-2 melanoma, 0.275 µM. The TGI was determined as 2.4 µM with SK-OV-3 ovarian, 1.19 µM in the experiment with SK-MEL-28 melanoma and 0.0627 µM with SNB-75 CNS.

Source of the values: PubChem BioAssay (NCI).
